Data taken from patent US12605376B2, “Methods of treating relapsing multiple sclerosis using an inhibitor of Bruton's tyrosine kinase” (Genentech, Inc., priority 2020, dated 2026).
Like-named read-outs stand apart in the source and are kept apart here. Marks after values point to notes of the source that are not given here.

Legend:
[1] = test system: panel of over 200 human kinases; settings: Crawford, et al., cited from earlier work
basophils (CD63) = settings: basophil activation, human whole blood, literature values, cited from earlier work
[2] = test system: panel of over 200 human kinases; assay: Kinase selectivity screen in a panel of over 200 human kinases; format: biochemical; settings: for # off-target kinases >50% INH/# total kinases tested @ 1 μM: unpublished
[3] = test system: cells of myeloid progenitor lineage (basophils); assay: Inhibition of myeloid lineage progenitor cell activation (FcR signaling, basophils); format: cell-based; settings: (±SEM)
B cells (CD69) = settings: B cell activation, human whole blood, literature values, cited from earlier work
B cells = assay: Inhibition of B cell activation (B-cell receptor signalling); format: cell-based; settings: (±SEM)
[4] = Safety analysis of previous fenebrutinib clinical trials in RA, SLE and CSU
[5] = without specific elimination procedures; cited from earlier work
[6] = patients with autoimmune conditions

C=CC(=O)N1CCC(CNc2ncnc(N)c2-c2ccc(Oc3ccccc3)cc2)CC1 [Evobrutinib]
# off-target kinases >50% INH/# total kinases tested @ 1 μM ([1]; J Med Chem 2018, listed as EVO): 3/221
# off-target kinases >50% INH/# total kinases tested @ 1 μM ([1]; J Med Chem 2018): 3/221 ^a
IC50 (basophils (CD63)): 1660 nM
off-target kinases inhibited by >50% / kinases tested at 10 μM ([2]; 10 μM): 18/218
EC50 [3]: 171 nM
EC90 [3]: 3100 nM
IC50 (B cells (CD69)): 84 nM
EC50 (B cells): 161 nM
EC90 (B cells): 524 nM

C[C@H]1CN(C2COC2)CCN1c1ccc(Nc2cc(-c3ccnc(N4CCn5c(cc6c5CC(C)(C)C6)C4=O)c3CO)cn(C)c2=O)nc1 [Fenebrutinib, (S)-2-(3′-(hydroxymethyl)-1-methyl-5-((5-(2-methyl-4-(oxetan-3-yl)piperazin-1-yl)pyridin-2-yl)amino)-6-oxo-1,6-dihydro-[3,4′-bipyridin]-2′-yl)-7,7-dimethyl-2,3,4,6,7,8-hexahydro-1H-cyclopenta[4,5]pyrrolo[1,2-a]pyrazin-1-one]
# off-target kinases >50% INH/# total kinases tested @ 1 μM ([1]; J Med Chem 2018, listed as FEN): 3/286
# off-target kinases >50% INH/# total kinases tested @ 1 μM ([1]; J Med Chem 2018): 2/286 ^a
IC50 (basophils (CD63)): 30.7 nM
IC50 (basophils (CD63); listed as FEN): 31 nM
EC50 [3]: 15 nM
EC90 [3]: 62 nM
IC50 (B cells (CD69)): 8.4 nM
IC50 (B cells (CD69); listed as FEN): 8 nM
Headache, investigator-reported events ([4]; 200 mg twice daily, n = 299): 16 (5.4%) patients (%)
Nasopharyngitis, investigator-reported events ([4]; 200 mg twice daily, n = 299): 18 (6.0%) patients (%)
Nausea, investigator-reported events ([4]; 200 mg twice daily, n = 299): 17 (5.7%) patients (%)
Number of patients with AE leading to treatment withdrawal ([4]; 200 mg twice daily, n = 299): 32 (10.7%) patients (%)
Number of patients with Serious AE ([4]; 200 mg twice daily, n = 299): 18 (6.0%) patients (%)
Number of patients with Serious AE related to blinded fenebrutinib ([4]; 200 mg twice daily, n = 299): 6 (2.0%) patients (%)
Number of patients with Study withdrawal due to AE ([4]; 200 mg twice daily, n = 299): 17 (5.7%) patients (%)
Total adverse events (AEs) ([4]; 200 mg twice daily, n = 299, RA/SLE/CSU trials): 507
Number of patients with Fatal AE ([4]; 200 mg twice daily, n = 299, death deemed unrelated to fenebrutinib): 1 (0.3%) patients (%)
Percent of patients with infection adverse events ([4]; CSU, 200 mg, n = 52, median follow-up 56 days): 32.7% (n = 52)
Percent of patients with infection adverse events ([4]; RA cohort 1, 200 mg, n = 110, median follow-up 84 days): 10.9% (n = 110)
Percent of patients with infection adverse events ([4]; RA cohort 2, 200 mg, n = 49, median follow-up 84 days): 6.1% (n = 49)
Percent of patients with infection adverse events ([4]; SLE, 200 mg, n = 88, median follow-up 336 days): 46.6% (n = 88)
infection rates in fenebrutinib arms compared to placebo ([4]; background immunosuppressant therapy in RA and SLE): no imbalance of infection rates
patients with serious infections ([4]; combined fenebrutinib arms): 2.0%
bleeding or bruising, patients ([4]; fenebrutinib arms): 7.7%
Hy's law cases [4, 6]: no Hy's law cases
risk causally associated with fenebrutinib (liver aminotransferase elevations) [4, 6]: Asymptomatic and reversible liver aminotransferase elevations were the only risk causally associated with fenebrutinib
atrial fibrillations, flutters, or other supraventricular tachyarrhythmias ([4]; randomized clinical trial patients): No fenebrutinib randomized clinical trial patients had atrial fibrillations, flutters, or other supraventricular tachyarrhythmias
EC50 (B cells): 8 nM
EC90 (B cells): 65 nM

C=CC(=O)N1CCC[C@@H](n2c(=O)n(-c3ccc(Oc4ccccc4)cc3)c3c(N)nccc32)C1 [Tolebrutinib]
IC50 (basophils (CD63)): 166 nM
# off-target kinases >50% INH/# total kinases tested @ 1 μM [2]: 19/218 ^d
# off-target kinases >50% INH/# total kinases tested @ 1 μM ([2]; listed as TOL): 19/218
EC50 [3]: 80 nM
EC90 [3]: 281 nM
IC50 (B cells (CD69)): 10 nM
EC50 (B cells): 26 nM
EC90 (B cells): 84 nM

C/C(O)=C(\C#N)C(=O)Nc1ccc(C(F)(F)F)cc1 [teriflunomide]
time to lower plasma teriflunomide concentrations to 0.02 mg/L [5]: up to 2 years
